# According to patent publication US20110236325A1, “METHODS TO TREAT OR PREVENT A SKIN CONDITION USING A NELL1 PEPTIDE” (NellOne Therapeutics, Inc., priority 2010, published 2011):
# Assays:
# EFT-400 tissues [1] = experiment: Sunburned cell counts in UV-irradiated EpiDerm-FT (EFT-400) skin model tissues, H&E histology; assay type: cell-based, human
# Description: Packaged tissues were stored at 4° C. overnight and then re-equilibrated in EFT-400-ASY medium overnight prior to the start of experiments. The sample size was n=3 for each treatment group in the gene expression experiments; and n=6 (two independent experiments of n=3) for the sunburned cell counts.
# Treated and untreated tissues were exposed to UV irradiation with 200 mJ/cm^2UVB/29.94 mW/cm^2UVA simulated solar UV light (Honle-500 solar lamp).
# (§1) At the conclusion of the 24 hour post-irradiation period, EFT-400 tissues were fixed in 10% formalin for 2 hours at room temperature (two independent experiments with n=3). Formalin fixed tissues were embedded in paraffin and 6 micron slices were stained with haematoxylin and eosin (H&E).
# EFT-400 tissues [2] = experiment: Adverse effects of treatment on EFT-400 tissues (H&E stained histology); settings: 50 μM in the basolateral medium
# Description: as §1
# EFT-400 tissues [3] = experiment: Gene expression by quantitative PCR custom array in EFT-400 tissues with or without UV irradiation; settings: for AVG Ct ACTB (housekeeping gene) / AVG Ct AQP3 / AVG Ct BCL2L1 / AVG Ct COL1A1 / AVG Ct COL4A2 / AVG Ct COL5A1 / AVG Ct COL6A1 / AVG Ct COL6A2 / AVG Ct COL7A1 / AVG Ct COL8A1 / AVG Ct COL11A1 / AVG Ct COL12A1 / AVG Ct COL14A1 / AVG Ct COL15A1 / AVG Ct COL16A1 / AVG Ct CYP2E1 / AVG Ct DSG1 / AVG Ct ERCC1 / AVG Ct FN1 / AVG Ct GAPDH (housekeeping gene) / AVG Ct GDF15 / AVG Ct GSTM3 / AVG Ct HSPA8 / AVG Ct IL1A / AVG Ct IL1B / AVG Ct IL8 / AVG Ct KAL1 / AVG Ct KRT16 / AVG Ct LAMA1 / AVG Ct LAMA2 / AVG Ct LAMA3 / AVG Ct LAMA5 / AVG Ct LAMB1 / AVG Ct LAMB3 / AVG Ct LAMC1 / AVG Ct MMP1 / AVG Ct MMP2 / AVG Ct MT2A / AVG Ct PCNA / AVG Ct RPL13A (housekeeping gene) / AVG Ct SIRT1 / AVG Ct TGFBI / AVG Ct THBS3 / AVG Ct TNC / AVG Ct VTN: 50 uM Genistein
# Description: EpiDerm-FT™ (EFT-400) tissues were produced and packaged in the MatTek Corporation GMP tissue culture production laboratories following standard procedures. Packaged tissues were stored at 4° C. overnight and then re-equilibrated in EFT-400-ASY medium overnight prior to the start of experiments. The sample size was n=3 for each treatment group in the gene expression experiments; and n=6 (two independent experiments of n=3) for the sunburned cell counts.
# Total RNA was isolated from the EFT-400 tissues (RNAqueous kit, Ambion) (n=3) and utilized for gene expression analysis by quantitative PCR on an SABioscience custom array containing 42 Human Extracellular Matrix (ECM) and Adhesion Molecules RT^2 Profiler™ PCR Array, stress and toxicity genes whose expression, based on MatTek data, are known to be dramatically altered by UV-protective compounds on UV damaged skin. […] Further, there were three internal control spots on the array that corresponded to human genomic DNA contamination (HGDC), positive PCR control (PPC), and reverse transcription control (RTC).
compound,measurement,setting,value
"O=c1c(-c2ccc(O)cc2)coc2cc(O)cc(O)c12 [Genistein, reference compound]",sunburned cell formation,"EFT-400 tissues [1]; 50 μM, 200 mJ/cm2 UVB/29.94 mW/cm2 UVA, 24 hour post irradiation",did not decrease sunburned cell formation to the same extent as 100 ng/ml NELL1
same,number of sunburned cells as compared to UV-only controls,"EFT-400 tissues [1]; pre-treatment 30 minutes prior to UV, continued 24 hours post-irradiation",statistically significant reduction in the number of sunburned cells
same,adverse effects on the EFT-400 tissues,EFT-400 tissues [2],did not produce any noteworthy adverse effects
same,"activity in producing the observed effects (sunburned cells, gene expression)","EFT-400 tissues [3]; NELL1 protein at 100 ng/ml, genistein at 50 μM",most active in producing the observed effects
same,AVG Ct ACTB (housekeeping gene),EFT-400 tissues [3]; No UV,18.95
same,AVG Ct AQP3,EFT-400 tissues [3]; No UV,23.75
same,AVG Ct BCL2L1,EFT-400 tissues [3]; No UV,24.35
same,AVG Ct COL1A1,EFT-400 tissues [3]; No UV,18.66
same,AVG Ct COL4A2,EFT-400 tissues [3]; No UV,26.06
same,AVG Ct COL5A1,EFT-400 tissues [3]; No UV,23.19
same,AVG Ct COL6A1,EFT-400 tissues [3]; No UV,19.41
same,AVG Ct COL6A2,EFT-400 tissues [3]; No UV,19.82
same,AVG Ct COL7A1,EFT-400 tissues [3]; No UV,26.3
same,AVG Ct COL8A1,EFT-400 tissues [3]; No UV,28.27
same,AVG Ct COL11A1,EFT-400 tissues [3]; No UV,27.54
same,AVG Ct COL12A1,EFT-400 tissues [3]; No UV,25.19
same,AVG Ct COL14A1,EFT-400 tissues [3]; No UV,26.08
same,AVG Ct COL15A1,EFT-400 tissues [3]; No UV,25.73
same,AVG Ct COL16A1,EFT-400 tissues [3]; No UV,24.6
same,AVG Ct CYP2E1,EFT-400 tissues [3]; No UV,31.05
same,AVG Ct DSG1,EFT-400 tissues [3]; No UV,20.31
same,AVG Ct ERCC1,EFT-400 tissues [3]; No UV,24.94
same,AVG Ct FN1,EFT-400 tissues [3]; No UV,21.06
same,AVG Ct GAPDH (housekeeping gene),EFT-400 tissues [3]; No UV,17.74
same,AVG Ct GDF15,EFT-400 tissues [3]; No UV,27.52
same,AVG Ct GSTM3,EFT-400 tissues [3]; No UV,29.01
same,AVG Ct HSPA8,EFT-400 tissues [3]; No UV,20.53
same,AVG Ct IL1A,EFT-400 tissues [3]; No UV,25.92
same,AVG Ct IL1B,EFT-400 tissues [3]; No UV,29.03
same,AVG Ct IL8,EFT-400 tissues [3]; No UV,23.12
same,AVG Ct KAL1,EFT-400 tissues [3]; No UV,31.59
same,AVG Ct KRT16,EFT-400 tissues [3]; No UV,17.11
same,AVG Ct LAMA1,EFT-400 tissues [3]; No UV,29.54
same,AVG Ct LAMA2,EFT-400 tissues [3]; No UV,25.35
same,AVG Ct LAMA3,EFT-400 tissues [3]; No UV,24.25
same,AVG Ct LAMA5,EFT-400 tissues [3]; No UV,27.39
same,AVG Ct LAMB1,EFT-400 tissues [3]; No UV,23.3
same,AVG Ct LAMB3,EFT-400 tissues [3]; No UV,25.31
same,AVG Ct LAMC1,EFT-400 tissues [3]; No UV,23.09
same,AVG Ct MMP1,EFT-400 tissues [3]; No UV,22.22
same,AVG Ct MMP2,EFT-400 tissues [3]; No UV,19.2
same,AVG Ct MT2A,EFT-400 tissues [3]; No UV,18.74
same,AVG Ct PCNA,EFT-400 tissues [3]; No UV,23.76
same,AVG Ct RPL13A (housekeeping gene),EFT-400 tissues [3]; No UV,20.65
same,AVG Ct SIRT1,EFT-400 tissues [3]; No UV,26.45
same,AVG Ct TGFBI,EFT-400 tissues [3]; No UV,22.04
same,AVG Ct THBS3,EFT-400 tissues [3]; No UV,29.09
same,AVG Ct TNC,EFT-400 tissues [3]; No UV,22.12
same,AVG Ct VTN,EFT-400 tissues [3]; No UV,32.74
same,expression of IL-1β elevated after UV exposure,EFT-400 tissues [3]; UV-irradiated,decrease in the expression
same,expression of IL-8 elevated after UV exposure,EFT-400 tissues [3]; UV-irradiated,decrease in the expression
same,expression of MMP-1 elevated after UV exposure,EFT-400 tissues [3]; UV-irradiated,decrease in the expression
same,levels of AQP3 RNA after UV exposure,EFT-400 tissues [3]; UV-irradiated,did not have an effect on AQP3 levels
same,reversing the UV-induced effects on gene expression,EFT-400 tissues [3]; UV-irradiated,most effective at reversing the UV-induced effects
same,UV-elevated levels of AQP3,"EFT-400 tissues [3]; UV-irradiated, genistein",did not have the same effect
same,AVG Ct ACTB (housekeeping gene),EFT-400 tissues [3]; UVB + UVA,18.85
same,AVG Ct AQP3,EFT-400 tissues [3]; UVB + UVA,23.01
same,AVG Ct BCL2L1,EFT-400 tissues [3]; UVB + UVA,23.79
same,AVG Ct COL1A1,EFT-400 tissues [3]; UVB + UVA,18.54
same,AVG Ct COL4A2,EFT-400 tissues [3]; UVB + UVA,21.82
same,AVG Ct COL5A1,EFT-400 tissues [3]; UVB + UVA,23.29
same,AVG Ct COL6A1,EFT-400 tissues [3]; UVB + UVA,19.47
same,AVG Ct COL6A2,EFT-400 tissues [3]; UVB + UVA,19.68
same,AVG Ct COL7A1,EFT-400 tissues [3]; UVB + UVA,24.97
same,AVG Ct COL8A1,EFT-400 tissues [3]; UVB + UVA,27.28
same,AVG Ct COL11A1,EFT-400 tissues [3]; UVB + UVA,27.6
same,AVG Ct COL12A1,EFT-400 tissues [3]; UVB + UVA,24.93
same,AVG Ct COL14A1,EFT-400 tissues [3]; UVB + UVA,25.69
same,AVG Ct COL15A1,EFT-400 tissues [3]; UVB + UVA,25.83
same,AVG Ct COL16A1,EFT-400 tissues [3]; UVB + UVA,23.98
same,AVG Ct CYP2E1,EFT-400 tissues [3]; UVB + UVA,29.69
same,AVG Ct DSG1,EFT-400 tissues [3]; UVB + UVA,21.03
same,AVG Ct ERCC1,EFT-400 tissues [3]; UVB + UVA,24.08
same,AVG Ct FN1,EFT-400 tissues [3]; UVB + UVA,20.79
same,AVG Ct GAPDH (housekeeping gene),EFT-400 tissues [3]; UVB + UVA,18.39
same,AVG Ct GDF15,EFT-400 tissues [3]; UVB + UVA,21.74
same,AVG Ct GSTM3,EFT-400 tissues [3]; UVB + UVA,28.37
same,AVG Ct HSPA8,EFT-400 tissues [3]; UVB + UVA,20.14
same,AVG Ct IL1A,EFT-400 tissues [3]; UVB + UVA,25.87
same,AVG Ct IL1B,EFT-400 tissues [3]; UVB + UVA,28.03
same,AVG Ct IL8,EFT-400 tissues [3]; UVB + UVA,20.61
same,AVG Ct KAL1,EFT-400 tissues [3]; UVB + UVA,31.72
same,AVG Ct KRT16,EFT-400 tissues [3]; UVB + UVA,17.92
same,AVG Ct LAMA1,EFT-400 tissues [3]; UVB + UVA,28.49
same,AVG Ct LAMA2,EFT-400 tissues [3]; UVB + UVA,25.42
same,AVG Ct LAMA3,EFT-400 tissues [3]; UVB + UVA,24.01
same,AVG Ct LAMA5,EFT-400 tissues [3]; UVB + UVA,27.71
same,AVG Ct LAMB1,EFT-400 tissues [3]; UVB + UVA,22.85
same,AVG Ct LAMB3,EFT-400 tissues [3]; UVB + UVA,24.92
same,AVG Ct LAMC1,EFT-400 tissues [3]; UVB + UVA,22.69
same,AVG Ct MMP1,EFT-400 tissues [3]; UVB + UVA,20.16
same,AVG Ct MMP2,EFT-400 tissues [3]; UVB + UVA,18.5
same,AVG Ct MT2A,EFT-400 tissues [3]; UVB + UVA,16.4
same,AVG Ct PCNA,EFT-400 tissues [3]; UVB + UVA,23.21
same,AVG Ct RPL13A (housekeeping gene),EFT-400 tissues [3]; UVB + UVA,20.68
same,AVG Ct SIRT1,EFT-400 tissues [3]; UVB + UVA,25.31
same,AVG Ct TGFBI,EFT-400 tissues [3]; UVB + UVA,22.03
same,AVG Ct THBS3,EFT-400 tissues [3]; UVB + UVA,28.97
same,AVG Ct TNC,EFT-400 tissues [3]; UVB + UVA,21.29
same,AVG Ct VTN,EFT-400 tissues [3]; UVB + UVA,32.61
same,"extent of gene expression changes in the absence of UV irradiation, compared to NELL1",EFT-400 tissues [3]; no UV,more changes compared to NELL1
same,gene expression in the absence of UV irradiation,EFT-400 tissues [3]; no UV,some decreases in gene expression
